Measurements: patent US7833553B2, “Sulfur-containing proanthocyanidin oligomer compositon and process for producing the same” (Amino Up Chemical Co. Ltd., priority 2003, dated 2010)

Tests used:
[1] = Superoxide dismutase (SOD)-like activity (SOD Test Wako kit); assay type: biochemical
Description: With respect to Substances 1 to 4 and Comparative Substances 1 and 2 which were the same as those used in Test Example 1, SOD-like activity was measured using a blood SOD activity measuring kit (SOD Test Wako: manufactured by Wako Pure Chemical Industries, Ltd.). SOD-like activity was calculated according to the following formula and 50% effective concentration (EC50) was calculated based on the relationship with the concentration of test sample. SOD-like activity(%)=[(1−(absorbance of test sample))/(absorbance of control)]×100
EC50 was calculated from SOD-like activities in gradual concentrations of each sample.

[2] = DPPH radical scavenging effect; assay type: biochemical; conditions: 60 μM DPPH, room temperature 30 minutes, absorbance 520 nm
Description: 100 μl of a DPPH solution (60 μM ethanol solution) was charged in a 96-well microplate and 100 μl of an ethanol solution as a test sample or 100 μl of ethanol as a control was added, and the whole was gently mixed and left to stand at room temperature for 30 minutes. Then, absorbance at 520 nm was measured and a DPPH radical scavenging ability was calculated according to the following formula. 50% effective concentration (EC50) was calculated from the DPPH radical scavenging ability and concentrations of gradually diluted test samples. DPPH radical scavenging ability(%)=[(1−(absorbance of test sample))/(absorbance of control)]×100
50% effective concentration (EC50) was calculated from DPPH radial scavenging abilities in gradual concentrations of each sample.

catechin [Comparative Substance 2]
EC50 in SOD-like activity [1]: 62.0 mg/L | EC50 in DPPH radical scavenging [2]: 1.71 mg/L
